Measured values from US20140065122A1, “Method for Removing a Microorganism Biofilm” (priority 2010, published 2014).

How the values were obtained:
[1] = tested on: Staphylococcus aureus RN4220 GFP biofilm; experiment: Examples 4 and 5: log reduction of Staphylococcus aureus biofilm after bacterial pretreatment followed by benzalkonium chloride; type: cell-based; details: Example 5; treatment with C14 benzalkonium chloride after pretreatment with the named strain(s)
Procedure: The target biofilms of Staphylococcus aureus RN4220 GFP cultivated in microplates and bacilli cultures used are obtained according to the method previously described for Bacillus thuringiensis 407.
(§1) On a microplate containing 24-hour biofilms of Staphylococcus aureus RN4220 GFP having a thickness greater than 30 μm, one carefully removes 250 μL of supernatant from each well. 250 μL of culture medium (control) or suspension of: • Bt • BtΔfla • Bl • or Bt+Bl at equal concentrations, calibrated at 10^8 cells/mL are then added to each well.
The Staphylococcus aureus biofilms in the presence or not of bacteria are then incubated at 37° C. for 4 hours to allow infiltration of swimming bacteria. The supernatants are eliminated prior to placement into contact with the biocide.
These target biofilms are then treated by adding to the wells 200 μL of C14 benzalkonium chloride (BAC, Fluka, Buchs, Switzerland) at a concentration of 750 ppm, or 200 μl of […] sodium chloride (NaCl) (“non-treated” biofilm. […]
The surviving S. aureus are counted on TSA agar after serialized dilutions in 150-mM NaCI and incubation for 24 hours at 37° C.
The log 10 reductions of the S. aureus bacteria are calculated by comparing the relationship of the surviving ones in the disinfected biofilms to the population of non-treated biofilms. […]

[2] = tested on: Staphylococcus aureus RN4220 GFP biofilm; experiment: Example 2: Staphylococcus aureus biofilm treated with lysostaphin with or without pretreatment by swimming Bacillus thuringiensis 407, residual biovolume; type: cell-based
Procedure: The strains of bacteria used for these experiments correspond to strains of Staphylococcus aureus RN4220 GFP and Bacillus thuringiensis 407 described in Table I.
The target biofilms of Staphylococcus aureus RN4220 GFP cultivated in microplates and the Bacillus thuringiensis 407 cultures used are obtained according to the method described previously.
as §1, with “of more” for “greater”, “of Bacillus thuringiensis 407” for “of: • Bt • BtΔfla • Bl • or Bt+Bl at equal concentrations,”, “into” for “to”
The Staphylococcus aureus biofilms in the presence or not of swimming bacteria are then incubated at 37° C. for 4 hours.
These target biofilms, sensitized or not for 4 hours by a cocktail of swimming bacteria, are then treated by adding into the wells 250 μL of lysostaphin in a concentration range of 0 to 0.5 μg/ml.
The same experimental device as the one described in the first experiment was used to quantify the effectiveness of treatment (comparison between the residual biovolume of the target biofilm during activity of the lysostaphin with or without pretreatment and a cocktail of swimming bacteria).

Substance | Log reduction (+/−0.2) [1] [log] | eradication of the target biofilm by the antimicrobial compound alone ([2]; lysostaphin concentration <0.5 μg/ml, without pretreatment) | effectiveness on the target biofilm after pretreatment with a cocktail of swimming bacteria ([2]; pretreatment Bacillus thuringiensis 407 10^8 cells/mL 4 hours, lysostaphin 0 to 0.5 μg/ml, P<0.05)
C14 benzalkonium chloride | −0.9 |  | 
lysostaphin |  | does not allow eradication | improved
